In patent publication US12221494B2, “Short synthetic peptides and their uses for treating retinal degenerative diseases and/or tissue injuries” (MacKay Memorial Hospital, priority 2019, dated 2025):

How the values were obtained:
STAT3 = assay: Western blot of STAT3 phosphorylation in C2C12 cells; assay type: cell-based, mouse; conditions: C2C12 myoblast cells, 5 to 20 min after stimulation
Protocol: Cell lysis, fractionation, and SDS-PAGE were conducted in accordance with procedures described previously (Yang Y C et al., BMC Cancer 2007; 7:216). Antibodies used in this study were for Phospho-Stat3 and STAT3 (1:1000-fold dilution). Proteins of interest were detected using the appropriate IgG-HRP secondary antibody (Santa Cruz Biotechnology) and ECL reagent (Amersham Biosciences).

[1] = tested on: Sprague-Dawley rats, retinal ischemia/reperfusion (I/R) injury; assay: TUNEL staining of I/R-injured rat retina (20 h); assay type: in vivo
Protocol: (§1) Experimental procedures were approved by the Mackay Memorial Hospital Review Board (Taiwan, R.O.C.). All surgeries were performed under aseptic conditions. Adult 10-week-old male Sprague-Dawley rats (initial body weight=312±11 g) were anesthetized by an intraperitoneal injection of xylazine (10 mg/kg). Peptide was dissolved in 0.85% normal saline to 1 mM and delivered by the subconjunctival injection of 100 μL peptide through a 31-Gneedle with a micro-syringe before the induction of I/R. Normal saline was as a vehicle control. Rat I/R was performed after peptide or vehicle injection for 4 h. Pupils were dilated with 0.5% tropicamide and 0.5% phenylephrine. Body temperature was maintained at 37° C. using a heating blanket After dilation of the pupil, the anterior chamber of the right eye was cannulated with a 27-gauge needle connected to a physiological saline reservoir. The intraocular pressure (IOP) was raised to 110 mmHg by keeping the reservoir at 150 cm above the eye, and retinal ischemia was confirmed by observing whitening of the iris and the loss of the red reflex of the retina. After 90 min of ischemia, the cannulating needle was withdrawn and the IOP was returned to normal pressure, resulting in recovery of the blood supply from the retinal artery and reperfusion injury induced. The reperfusion was evident by the return of the red reflex. Corneal analgesia was achieved using 1 or 2 drops of 0.4% oxybuprocaine hydrochloride, and Ofloxacin ophthalmic gel (0.3%) was applied topically to the eye before and after the procedure. Only the right eye was used in all experiments. A sham procedure was performed at left eye served as an intra-animal control.
After I/R for 20 h, rats (n=6 in each group) were euthanized by an overdose of pentobarbital. Enucleated eyeballs were fixed in 4% PFA for 24 h at 4° C. Fixed retinal tissues were embedded in paraffin. To identify apoptosis of retinal cells, 5 μm sections thick cut through the optic disc, de-paraffinized, rehydrated, incubatedwith 20 μg/mL proteinase K for 10 min, and immunofluorescence staining of apoptotic cells was performed using a terminal deoxynucleotidyl transferase(TdT)-mediated dUTP nick-end labeling (TUNEL)-based kit (Roche Molecular Biochemicals, Indianapolis, IN) according to the manufacturer's instructions. Nuclei were located by counterstaining with Hoechst 33258 for 7 min Sections were observed under an epifluorescence microscope (Zeiss Axioplan 2 imaging; Zeiss, Oberkochen, Germany) equipped with a charge-coupled device (CCD) camera (Zeiss AxioCam HRm, Zeiss) (×400, 6 fields/sample), and quantification was performed using Axiovert software (Zeiss AxioVision Release 4.8.2, Zeiss). Three sections per eye were averaged and the mean of six eyes was recorded as the representative value for each group.
In this example, the neuroprotective effect of the 6-mer variant peptides on neural retina cells and retinal capillary system was investigated using a rat model of I/R injury described in the “Material and Methods” section. Briefly, 6-mer variant peptide (1 mM, 120 μl) was injected into the subconjunctival space of Sprague-Dawley rats for 4 h before the induction of I/R. Then, I/R injury was induced in rat retinas by increasing the intraocular pressure (IOP) in the eye to 110 mmHg for 90 min, followed by 20 h of reperfusion. Subsequently, the level of retinal cell apoptosis was evaluated using TUNEL staining. In addition, the retinal morphology was analyzed with H&E staining 14 days after the I/R injury. Results are summarized in FIGS. 6 to 10, and Tables 6 to 9.

[2] = tested on: Sprague-Dawley rats, retinal ischemia/reperfusion (I/R) injury; assay: Histological (H&E) evaluation of I/R-induced retinal injury (14 days); assay type: in vivo; conditions: rat, 14 days after I/R injury
Protocol: as §1
Rats (n=6 in each group) were euthanized using an overdose of pentobarbital (intravenously 100 mg/kg of bodyweight) at 14 days after the I/R injury, the eyeballs were marked at the 12 o'clock position of the cornea with silk suture, and then enucleated and fixed in 4% paraformaldehyde(PFA) at 4° C. for 24 h. After fixation, the anterior segment was removed, and the posterior eyeball containing the optic disc was dehydrated in a graded ethanol series and embedded in paraffin. […] To quantify the degree of I/R damage in the retina, we measured the overall central retinal thicknesses (OT, between the GCL to ONL), the inner nuclear layer (INL), and the outer nuclear layer (ONL). The number of cells in the ganglion cell layer (GCL) was calculated using the linear cell density (cells per 200 μm). Three sections per eye were averaged and the mean of six eyes was recorded as the representative value for each group.

[3] = tested on: Sprague-Dawley rats, retinal ischemia/reperfusion (I/R) injury; assay: Retinal vasculature analysis (acellular capillaries) 14 days after I/R injury; assay type: in vivo; conditions: rat
Protocol: as §1
Rats (n=6 in each group) were euthanized using an overdose of pentobarbital at 14 days after I/R injury, the eyeballs were fixed with 4% PFA for overnight at 4° C. […] Ten sections per eye were averaged and the mean of six eyes was recorded as the representative value for each group.

**Q.** “NH2-(D-Ser)-Leu-Gly-Ala-Glu-Gln-COOH (SLGAEQ; HELM PEPTIDE1{[dS].L.G.A.E.Q}$$$$V2.0; SMILES CC(C)C[C@H](NC(=O)[C@H](N)CO)C(=O)NCC(=O)N[C@@H](C)C(=O)N[C@@H](CCC(=O)O)C(=O)N[C@@H](CCC(N)=O)C(=O)O) [6-mer dS]” was tested. Which “STAT3 phosphorylation (immunoblot)” value (STAT3) did it give?
**A.** led to STAT3 phosphorylation

**Q.** And the “Number of TUNEL-positive cells in retina” value ([1]; subconjunctival injection 1 mM 4 h before I/R, 20 hours after I/R injury, Vehicle + I/R 27.2 ± 2.7)?
**A.** 7.8 ± 1.5 /200 μm

**Q.** What about the “I/R-induced retinal cell apoptosis (TUNEL staining), in words” value ([1]; subconjunctival injection prior to I/R, 20 h reperfusion) of the same substance?
**A.** only smaller numbers of green fluorescent nuclei

**Q.** And the “INL Thickness” value ([2]; H&E, Control 70.7 ± 2.4, Vehicle + I/R 51.6 ± 0.8)?
**A.** 71.3 ± 7.5 μm

**Q.** What about the “ONL Thickness” value ([2]; H&E, Control 139.8 ± 4.2, Vehicle + I/R 125.8 ± 4.5) of the same substance?
**A.** 133.4 ± 7.7 μm

**Q.** What about the “Total Thickness (From GCL to INL)” value ([2]; H&E, Control 326.2 ± 9.4, Vehicle + I/R 260.8 ± 7.1) of the same substance?
**A.** 308.9 ± 11.2 μm

**Q.** And the “overall retinal thickness, in words” value ([2]; single subconjunctival injection)?
**A.** improved the overall retinal thickness to a level similar to that in the shame control group

**Q.** And the “number of degenerate capillaries, in words” value ([3]; 14 days after I/R injury)?
**A.** The number of degenerate capillaries was reduced

**Q.** And the “Number of acellilar capillaries” value ([3]; 14 days post-ischemia, Vehicle + I/R 7.2 ± 0.9)?
**A.** 2.3 ± 0.7 /mm^2

**Q.** What about the “cytotoxic effect on retinal vasculature” value ([3]; sham testing in contralateral eye) of the same substance?
**A.** had no cytotoxic effect on retinal vasculature
